Reference: patent US20250129430A1, “HIGH ATP-AFFINITY PROTEIN AS THERAPEUTIC TARGET FOR INTRACTABLE CANCER MOLECULAR SUBTYPES AND INHIBITOR THEREOF” (VeraVerse Co., Ltd., priority 2021, published 2025)

How the values were obtained:
Experiment in all cases: Cell viability drug screen, 12-point dose-response AUC
Assay type in all cases: cell-based, human
OCUM1 = OCUM1 cells; 72 hours
Method in brief: (§1)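 Twelve half-log concentrations per compound were tested on gastric cancer cells with an EMT phenotype (5×10^3/well, dosed 24 h post-seeding). Viability after 72 h was quantified via luminescence relative to 0.5% DMSO, and repeats were averaged.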

SNU601 = SNU601 cells; 72 hours
Method in brief: as §1

SNU1 = SNU1 cells; 72 hours
Method in brief: as §1

NCC19 = NCC19 cells; 72 hours
Method in brief: as §1

YCC2 = YCC2 cells; 72 hours
Method in brief: as §1

NCC59 = NCC59 cells; 72 hours
Method in brief: as §1

NCC24 = NCC24 cells; 72 hours
Method in brief: as §1

SNU484 = SNU484 cells (SEM subtype); 72 hours
Method in brief: as §1

KATO3 = KATO3 cells; 72 hours
Method in brief: as §1

MKN28 = MKN28 cells; 72 hours
Method in brief: as §1

NCC20 = NCC20 cells; 72 hours
Method in brief: as §1

SNU16 = SNU16 cells; 72 hours
Method in brief: as §1

MKN1 = MKN1 cells; 72 hours
Method in brief: as §1

NCI_N87 = NCI_N87 cells; 72 hours
Method in brief: as §1

SNU1967 = SNU1967 cells; 72 hours
Method in brief: as §1

YCC3 = YCC3 cells; 72 hours
Method in brief: as §1

SNU719 = SNU719 cells; 72 hours
Method in brief: (§2)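 Gastric cancer lines seeded 5×10^3 cells/well, dosed after 24 h with half-log 12-point compound dilutions (DMSO 0.5% control), then 72 h at 37 °C. Viability by luminescence, normalized to DMSO; AUC by trapezoidal method, averaged over repeats.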

YCC11 = YCC11 cells (SEM subtype); 72 hours
Method in brief: as §1

SNU668 = SNU668 cells (SEM subtype); 72 hours
Method in brief: as §1

MKN45 = MKN45 cells (non-SEM subtype); 72 hours
Method in brief: as §2

SNU216 = SNU216 cells (non-SEM subtype); 72 hours
Method in brief: as §2

Hs746T = Hs746T cells (SEM subtype); 72 hours
Method in brief: as §1

SNU1750 = SNU1750 cells (SEM subtype); 72 hours
Method in brief: as §1

SNU620 = SNU620 cells; 72 hours
Method in brief: as §1

SNU638 = SNU638 cells; 72 hours
Method in brief: as §1

SK4 = SK4 cells (SEM subtype); 72 hours
Method in brief: as §1

MKN74 = MKN74 cells; 72 hours
Method in brief: as §2

AGS = AGS cells (non-SEM subtype); 72 hours
Method in brief: as §2

FU97 = test system: FU97; set-up: Average Area Under the Viability Curve (AUC), AUC norm value: scale not given here; details: FU97 cells; 72 hours
Method in brief: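 Trapezoidal AUC of a 12-point, DMSO-normalized dose-response curve. Luminescent viability was measured after 72 h of exposure at 37° C to half-log serial dilutions (0.5% DMSO control), dosed 24 h after plating FU97 cells at 5×10^3 per well.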

SMILES	Average Area Under the Viability Curve (AUC), AUC norm value (OCUM1)	Average Area Under the Viability Curve (AUC), AUC norm value (SNU601)	Average Area Under the Viability Curve (AUC), AUC norm value (SNU1)	Average Area Under the Viability Curve (AUC), AUC norm value (NCC19)	Average Area Under the Viability Curve (AUC), AUC norm value (YCC2)	Average Area Under the Viability Curve (AUC), AUC norm value (NCC59)	Average Area Under the Viability Curve (AUC), AUC norm value (NCC24)	Average Area Under the Viability Curve (AUC), AUC norm value (SNU484)	Average Area Under the Viability Curve (AUC), AUC norm value (KATO3)	Average Area Under the Viability Curve (AUC), AUC norm value (MKN28)	Average Area Under the Viability Curve (AUC), AUC norm value (NCC20)	Average Area Under the Viability Curve (AUC), AUC norm value (SNU16)	Average Area Under the Viability Curve (AUC), AUC norm value (MKN1)	Average Area Under the Viability Curve (AUC), AUC norm value (NCI_N87)	Average Area Under the Viability Curve (AUC), AUC norm value (SNU1967)	Average Area Under the Viability Curve (AUC), AUC norm value (YCC3)	Average Area Under the Viability Curve (AUC), AUC norm value (SNU719)	Average Area Under the Viability Curve (AUC), AUC norm value (YCC11)	Average Area Under the Viability Curve (AUC), AUC norm value (SNU668)	Average Area Under the Viability Curve (AUC), AUC norm value (MKN45)	further results
Nc1ccn([C@@H]2O[C@H](CO)[C@@H](O)C2(F)F)c(=O)n1 [Gemcitabine (Gemzar), Gemcitabine]	−1.402	0.2471	−0.3367	1.697	0.1111	3.024	−1.1	−0.2757	4.1466	1.089	−0.9089	0.514	−0.9169	1.33	−4.705	0.1853	3.628	−1.649	−1.312	1.053	Average Area Under the Viability Curve (AUC), AUC norm value (SNU216): 1.837; Average Area Under the Viability Curve (AUC), AUC norm value (Hs746T): 1.71; Average Area Under the Viability Curve (AUC), AUC norm value (SNU1750): 0; Average Area Under the Viability Curve (AUC), AUC norm value (SNU620): −1.64; Average Area Under the Viability Curve (AUC), AUC norm value (SNU638): −2.404; Average Area Under the Viability Curve (AUC), AUC norm value (SK4): −0.8764; Average Area Under the Viability Curve (AUC), AUC norm value (MKN74): −1.402; Average Area Under the Viability Curve (AUC), AUC norm value (AGS): −2.364; Average Area Under the Viability Curve (AUC), AUC norm value (FU97): 1.888
CC(C)n1nc(-c2ccc3oc(N)nc3c2)c2c(N)ncnc21 [INK 128 (MLN0128), INK 128]	0.03105	1.346	1.281	0.3022	0	1.541	0.7502	−1.089	1.633	1.195	−2.568	−0.8733	−0.7444	0.7081	−0.4728	0.8535	3.8255	−2.648	1.085	−0.5935	Average Area Under the Viability Curve (AUC), AUC norm value (SNU216): −0.9082; Average Area Under the Viability Curve (AUC), AUC norm value (Hs746T): −1.821; Average Area Under the Viability Curve (AUC), AUC norm value (SNU1750): −1.079; Average Area Under the Viability Curve (AUC), AUC norm value (SNU620): 0.08832; Average Area Under the Viability Curve (AUC), AUC norm value (SNU638): 0.2387; Average Area Under the Viability Curve (AUC), AUC norm value (SK4): −2.931; Average Area Under the Viability Curve (AUC), AUC norm value (MKN74): −0.4883; Average Area Under the Viability Curve (AUC), AUC norm value (AGS): −1.244; Average Area Under the Viability Curve (AUC), AUC norm value (FU97): −2.857
Cn1cc(CNCC2CCN(c3ncc(C(=O)NO)cn3)CC2)c2ccccc21 [JNJ-26481585]	0.02955	1.501	−0.984	0.3912	−0.1018	3.687	−1.592	0	0.3482	−0.5312	−1.396	−0.7883	0.558	−0.2649	−1.0365	0.3561	3.527	0.08841	1.486	2.743	Average Area Under the Viability Curve (AUC), AUC norm value (SNU216): 0.3424; Average Area Under the Viability Curve (AUC), AUC norm value (Hs746T): 0.2906; Average Area Under the Viability Curve (AUC), AUC norm value (SNU1750): −0.8596; Average Area Under the Viability Curve (AUC), AUC norm value (SNU620): −1.2467; Average Area Under the Viability Curve (AUC), AUC norm value (SNU638): 0.1995; Average Area Under the Viability Curve (AUC), AUC norm value (SK4): −0.3258; Average Area Under the Viability Curve (AUC), AUC norm value (MKN74): −0.06428; Average Area Under the Viability Curve (AUC), AUC norm value (AGS): −1.073; Average Area Under the Viability Curve (AUC), AUC norm value (FU97): −0.6324
